This is an account of results in PMC3519909 (PLoS Biology, 2012).

Data set [1] concerns the target T1, Ima5 (Saccharomyces cerevisiae, UniProt P40884).
T1 construct: crude extract of yeast overexpressing IMA5, compared with ima5 deletion mutant
T1 sequence (P40884 1-581): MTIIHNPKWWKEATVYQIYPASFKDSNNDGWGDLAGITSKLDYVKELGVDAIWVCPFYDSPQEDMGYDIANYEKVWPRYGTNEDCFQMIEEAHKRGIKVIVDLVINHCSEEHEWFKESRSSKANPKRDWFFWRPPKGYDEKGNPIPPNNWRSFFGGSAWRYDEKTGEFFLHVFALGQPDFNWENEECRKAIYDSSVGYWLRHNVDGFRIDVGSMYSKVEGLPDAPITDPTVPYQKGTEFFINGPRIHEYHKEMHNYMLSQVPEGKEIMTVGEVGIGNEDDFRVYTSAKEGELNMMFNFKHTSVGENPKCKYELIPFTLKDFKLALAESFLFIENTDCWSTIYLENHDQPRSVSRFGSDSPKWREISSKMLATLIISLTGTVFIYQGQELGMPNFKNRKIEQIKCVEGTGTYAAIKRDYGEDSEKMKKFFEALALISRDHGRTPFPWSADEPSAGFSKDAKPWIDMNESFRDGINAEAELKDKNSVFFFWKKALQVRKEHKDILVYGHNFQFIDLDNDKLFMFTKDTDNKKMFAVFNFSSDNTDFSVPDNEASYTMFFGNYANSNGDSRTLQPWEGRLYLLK
The experiment in a line: glucose release, crude extract of IMA5-overexpressing yeast. Type of data set: biochemical. To be noted: relative to ima5 deletion mutant.

The target in data set [2] is T2, K. lactis [GI: 50312678] (Kluyveromyces lactis, UniProt Q6CSK8).
T2 construct: gene KLLA0_B00242g
Briefly: glucose oxidase/peroxidase coupled glucose release. The format is biochemical. To be noted: Michaelis-Menten or Hill fit.

Substrate in data set [3]: CO[C@H]1O[C@H](CO)[C@@H](O)[C@H](O)[C@H]1O
The experiment in a line: glucose oxidase/peroxidase coupled glucose release. The settings on record: Michaelis-Menten or Hill fit. Type of data set: biochemical, Saccharomyces cerevisiae.

T2 sequence (Q6CSK8 entry or part of it): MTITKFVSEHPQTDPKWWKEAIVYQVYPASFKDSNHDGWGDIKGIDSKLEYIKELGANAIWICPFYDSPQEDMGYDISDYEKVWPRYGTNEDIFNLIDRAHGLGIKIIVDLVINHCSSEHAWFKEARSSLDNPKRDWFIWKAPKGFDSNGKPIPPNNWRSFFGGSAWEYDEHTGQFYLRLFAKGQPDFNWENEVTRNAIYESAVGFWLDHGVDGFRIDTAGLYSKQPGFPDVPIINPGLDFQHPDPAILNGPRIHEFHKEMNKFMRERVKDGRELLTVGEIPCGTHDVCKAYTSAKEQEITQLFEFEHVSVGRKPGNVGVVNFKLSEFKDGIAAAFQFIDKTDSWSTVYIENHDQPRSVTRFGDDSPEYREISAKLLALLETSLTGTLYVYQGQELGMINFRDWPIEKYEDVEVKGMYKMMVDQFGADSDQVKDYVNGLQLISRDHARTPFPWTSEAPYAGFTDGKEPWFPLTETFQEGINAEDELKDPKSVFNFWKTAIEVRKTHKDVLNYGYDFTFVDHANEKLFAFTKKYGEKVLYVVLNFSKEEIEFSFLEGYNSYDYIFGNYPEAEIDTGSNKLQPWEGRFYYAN

`OC[C@H]1O[C@H](OC[C@H]2OC(O)[C@H](O)[C@@H](O)[C@@H]2O)[C@H](O)[C@@H](O)[C@@H]1O` (stereo partly shown) [isomaltose]: the relative activity result in data set [1] was “relative enzyme activity in crude extracts derived from a yeast strain overexpressing IMA5”.

For orientation: Km means the concentration of substrate that gives half-maximal velocity. For `OC[C@H]1O[C@H](O[C@H]2[C@H](O)[C@@H](O)C(O)O[C@@H]2CO)[C@H](O)[C@@H](O)[C@@H]1O` (stereo partly shown) [maltose], the Km result in data set [2] is given as “one of the paralogs retains the broad specificity of ancMalS”.

B1: Ima1 (Saccharomyces cerevisiae S288C) (protein)
chain: TISSAHPETEPKWWKEATFYQIYPASFKDSNDDGWGDMKGIASKLEYIKELGADAIWISPFYDSPQDDMGYDIANYEKVWPTYGTNEDCFALIEKTHKLGMKFITDLVINHCSSEHEWFKESRSSKTNPKRDWFFWRPPKGYDAEGKPIPPNNWKSYFGGSAWTFDEKTQEFYLRLFCSTQPDLNWENEDCRKAIYESAVGYWLDHGVDGFRIDVGSLYSKVVGLPDAPVVDKNSTWQSSDPYTLNGPRIHEFHQEMNQFIRNRVKDGREIMTVGEMQHASDETKRLYTSASRHELSELFNFSHTDVGTSPLFRYNLVPFELKDWKIALAELFRYINGTDCWSTIYLENHDQPRSITRFGDDSPKNRVISGKLLSVLLSALTGTLYVYQGQELGQINFKNWPVEKYEDVEIRNNYNAIKEEHGENSEEMKKFLEAIALISRDHARTPMQWSREEPNAGFSGPSAKPWFYLNDSFREGINVEDEIKDPNSVLNFWKEALKFRKAHKDITVYGYDFEFIDLDNKKLFSFTKKYNNKTLFAALNFSSDATDFKIPNDDSSFKLEFGNYPKKEVDASSRTLKPWEGRIYISE
notes: purified present-day enzyme; expression details in Text S1
In general, kcat refers to the maximal rate divided by the concentration of active sites. Regarding B1, in data set [3], the Km is listed as 16.40 ± 0.73 mM and the kcat was 0.2688 ± 0.00167 s⁻¹.
